# From patent US11903955B2, “Methods of treating heart failure with reduced ejection fraction” (ASTRAZENECA AB, priority 2019, dated 2024)
# Like-named read-outs stand apart in the source and are kept apart here. Marks after values point to notes of the source that are not given here.
# Test system: patients with chronic heart failure with reduced ejection fraction (LVEF ≤40%)
# Details: for Cardiovascular death or hospitalization for heart failure, Hazard Ratio (95% CI) / Cardiovascular death, Hazard Ratio (95% CI) / Death from any cause, Hazard Ratio (95% CI) / Hospitalization for heart failure or an urgent heart failure visit, Hazard Ratio (95% CI) / Hospitalization for heart failure, Hazard Ratio (95% CI) / Primary composite outcome, Hazard Ratio (95% CI) / Urgent heart failure visit, Hazard Ratio (95% CI) / Worsening renal function (composite), Hazard Ratio (95% CI) / Total number of (first and recurrent) heart failure hospitalizations and cardiovascular death, rate ratio (95% CI) / HR (95% CI) for primary outcome of CV death or worsening HF: dapagliflozin vs placebo; for Total number of (first and recurrent) heart failure hospitalizations and cardiovascular death, rate ratio (95% CI): LWYY method
# From the text: Eligibility requirements included an age of at least 18 years, New York Heart Association (NYHA) class II, III, or IV symptoms, and an ejection fraction of 40% or less. […] Patients with atrial fibrillation or atrial flutter on their baseline electrocardiogram were required to have a NT-proBNP level of at least 900 pg/mL, irrespective of history of heart failure hospitalization. Patients were required to receive standard drug and device therapy for heart failure including an angiotensin-converting enzyme (ACE) inhibitor, angiotensin receptor blocker (ARB), or sacubitril/valsartan; a beta-blocker, unless contraindicated or not tolerated, and a mineralocorticoid receptor (MR) […], if considered appropriate. Doses were required to be individually optimized, in accordance with the targets recommended in guidelines, and stable for at least 4 weeks (excepting diuretics, which could be dosed flexibly). Investigators were advised that patients with type 2 diabetes should continue to take their glucose-lowering therapies, but these could be adjusted as required. Specifically, the protocol stated that the dose of insulin, sulfonylurea treatment, or both, could be reduced to minimize the risk of hypoglycemia, for example in patients with a baseline hemoglobin A1C (HbA1c) level below 7%.
# All the patients provided written informed consent and entered a 14-day enrollment period during which the trial inclusion and exclusion criteria were checked and baseline information gathered, including findings from clinical examination and laboratory measurements. […] Investigators used an interactive voice or web response system to obtain treatment assignment. Randomization was stratified based on a diagnosis of type 2 diabetes, defined as either an established diagnosis or a HbA1c level of 6.5% or greater (≥48 mmol/mol) confirmed in a central laboratory at screening. Patients were evaluated at 14 days and 60 days after randomization, with a focus on assessment of heart failure and volume status, adverse events, and checking renal function and potassium. Further study visits took place at 4 months and at 4-month intervals thereafter. The protocol required that study drug be permanently discontinued if pregnancy or diabetic ketoacidosis occurred.
# The primary outcome was a composite of a first episode of worsening heart failure or death from cardiovascular causes. An episode of worsening heart failure was either an unplanned hospitalization for heart failure or an urgent heart failure visit requiring intravenous therapy.^14 The first of the secondary outcomes was the composite of heart failure hospitalization or cardiovascular death.
# Outcomes were adjudicated by a clinical-end-points committee, blinded to treatment assignment, according to prespecified criteria.
# Using a two-sided alpha of 5%, we calculated that 844 primary endpoints would provide a statistical power of 90% for the test of the hypothesis. With an expected annual event rate of 11% in the placebo treatment group, approximately 4500 patients were estimated to provide the required number of primary events, based on an anticipated recruitment period of 18 months and an average follow-up period of approximately 24 months. A closed testing procedure was used, including a prespecified hierarchical testing of the primary and secondary endpoints in the order specified above. Type I error was controlled at a two-sided 0.0499 alpha level for multiplicity across primary and secondary endpoints and taking account of one interim efficacy analysis.
# Data from all randomly assigned patients were included in the analyses of the primary and secondary outcomes, according to the intention-to-treat principle. Baseline characteristics were summarized as means and standard deviations, medians and inter-quartile ranges, or percentages.
# [1] = all patients (N = 2373), listed as dapagliflozin
# [2] = all patients, listed as dapagliflozin
smiles,measurement,setting,value
"CCOc1ccc(Cc2cc([C@@H]3O[C@H](CO)[C@@H](O)[C@H](O)[C@H]3O)ccc2Cl)cc1 [Dapagliflozin, dapagliflozin]","Worsening renal function (composite), No. (%)",all patients (N = 2373),28 (1.2) No. (%)
same,"Cardiovascular death or hospitalization for heart failure, No. (%)",[1],382 No. (%)
same,"Cardiovascular death, No. (%)",[1],227 No. (%)
same,"Hospitalization for heart failure, No. (%)",[1],231 (9.7%) No. (%)
same,"Primary composite outcome (urgent heart failure visit, hospitalization for heart failure or cardiovascular death), No. (%)","all patients, 10 mg once daily (N = 2373), median follow-up 18.2 months",386 (16.3) No. (%)
same,"hospitalizations for heart failure, total first and recurrent","all patients, dapagliflozin arm",340
same,"Cardiovascular death or hospitalization for heart failure, Hazard Ratio (95% CI)",No T2DM,0.73 (0.60-0.89)
same,"Cardiovascular death, Hazard Ratio (95% CI)",No T2DM,0.85 (0.66-1.10)
same,"Death from any cause, Hazard Ratio (95% CI)",No T2DM,0.88 (0.70-1.12)
same,"Hospitalization for heart failure or an urgent heart failure visit, Hazard Ratio (95% CI)",No T2DM,0.62 (0.48-0.80)
same,"Hospitalization for heart failure, Hazard Ratio (95% CI)",No T2DM,0.63 (0.48-0.81)
same,"Primary composite outcome, Hazard Ratio (95% CI)",No T2DM,0.73 (0.60 to 0.88)
same,"Urgent heart failure visit, Hazard Ratio (95% CI)",No T2DM,0.25 (0.07-0.89)
same,"Worsening renal function (composite), Hazard Ratio (95% CI)",No T2DM,0.67 (0.30-1.49)
same,"Total number of (first and recurrent) heart failure hospitalizations and cardiovascular death, rate ratio (95% CI)",No T2DM,"0.73 (0.59, 0.91)"
same,"Cardiovascular death or hospitalization for heart failure, Hazard Ratio (95% CI)",T2DM,0.75 (0.63-0.90)
same,"Cardiovascular death, Hazard Ratio (95% CI)",T2DM,0.79 (0.63-1.01)
same,"Death from any cause, Hazard Ratio (95% CI)",T2DM,0.78 (0.63-0.97)
same,"Hospitalization for heart failure or an urgent heart failure visit, Hazard Ratio (95% CI)",T2DM,0.77 (0.61-0.95)
same,"Hospitalization for heart failure, Hazard Ratio (95% CI)",T2DM,0.76 (0.61-0.95)
same,"Primary composite outcome, Hazard Ratio (95% CI)",T2DM,0.75 (0.63 to 0.90)
same,"Urgent heart failure visit, Hazard Ratio (95% CI)",T2DM,0.62 (0.24-1.59)
same,"Worsening renal function (composite), Hazard Ratio (95% CI)",T2DM,0.73 (0.39-1.34)
same,"Total number of (first and recurrent) heart failure hospitalizations and cardiovascular death, rate ratio (95% CI)",T2DM,"0.77 (0.63, 0.94)"
same,"Cardiovascular death or hospitalization for heart failure, Hazard Ratio (95% CI)",all patients,0.75 (0.65-0.85)
same,"Cardiovascular death, Hazard Ratio (95% CI)",all patients,0.82 (0.69-0.98)
same,"Death from any cause, Hazard Ratio (95% CI)",all patients,0.83 (0.71-0.97)
same,"Hospitalization for heart failure or an urgent heart failure visit, Hazard Ratio (95% CI)",all patients,0.70 (0.59-0.83)
same,"Hospitalization for heart failure, Hazard Ratio (95% CI)",all patients,0.70 (0.59-0.83)
same,"Primary composite outcome, Hazard Ratio (95% CI)",all patients,0.74 (0.65-0.85)
same,"Urgent heart failure visit, Hazard Ratio (95% CI)",all patients,0.43 (0.20-0.90)
same,"Worsening renal function (composite), Hazard Ratio (95% CI)",all patients,0.71 (0.44-1.16)
same,"Total number of (first and recurrent) heart failure hospitalizations and cardiovascular death, rate ratio (95% CI)",all patients,0.75 (0.65-0.88)‡
same,"Total number of (first and recurrent) heart failure hospitalizations and cardiovascular death, rate ratio (95% CI)",[2],0.75
same,"Cardiovascular death or hospitalization for heart failure, Hazard Ratio (95% CI)",[2],0.75
same,"Cardiovascular death, Hazard Ratio (95% CI)",[2],0.82
same,"Death from any cause, Hazard Ratio (95% CI)",[2],0.83
same,"Hospitalization for heart failure, Hazard Ratio (95% CI)",[2],0.70
same,"Primary composite outcome, Hazard Ratio (95% CI)",[2],0.74
same,"Worsening renal function (composite), Hazard Ratio (95% CI)",[2],0.71
same,HR (95% CI) for primary outcome of CV death or worsening HF,highest tertile of baseline KCCQ-TSS (>87.5),0.62 (0.46-0.83)
same,HR (95% CI) for primary outcome of CV death or worsening HF,lowest tertile of baseline KCCQ-TSS (≤65.6),0.70 (0.57-0.86)
same,HR (95% CI) for primary outcome of CV death or worsening HF,middle tertile of baseline KCCQ-TSS (65.7-87.5),0.77 (0.61-0.98)
same,numbers of patients who would need to have been treated to prevent one primary event,over the duration of the trial,21
same,hazard ratio for the primary outcome,"patients without diabetes, highest third of glycated hemoglobin (≥6.0%), dapagliflozin versus placebo","0.72 (0.52, 1.00)"
same,hazard ratio for the primary outcome,"patients without diabetes, lowest third of glycated hemoglobin (≤5.6%), dapagliflozin versus placebo","0.74 (95% CI 0.53, 1.04)"
same,hazard ratio for the primary outcome,"patients without diabetes, middle third of glycated hemoglobin (>5.6-<6.0%), dapagliflozin versus placebo","0.71 (0.48, 1.04)"
same,hazard ratio for the primary outcome,"post hoc subgroup: patients not taking sacubitril-valsartan, dapagliflozin to placebo",0.74
same,hazard ratio for the primary outcome,"post hoc subgroup: patients taking sacubitril-valsartan at baseline, dapagliflozin to placebo",0.75
